Experimental data published in patent US20150216182A1, “COMPOSITIONS AND METHODS OF THE ATTRACTION AND REPULSION OF INSECTS” (Olfactor Laboratories, Inc., priority 2012, published 2015).
Structures can show the parent of a compound that is named as a salt. Where two headings read alike, the source gives them in different places.

Key:
female mosquitoes = test: whole plant or invertebrate; details: 2 h; for mortality at 200 µg/mL: read-out: % mortality with 0.2 mg/ml; for mortality at 2000 µg/mL: read-out: % mortality with 2 mg/ml
larvae = test: larvicidal activity assay; assay type: in vivo; details: for pest or weed control at 0.25 %: read-out: % Lethality with 0.25% compound conc.; for pest or weed control at 100 ppm: read-out: % Lethality at 100 ppm
Procedure: A 6-well plate (Corning Life Sciences, Tewksbury, Mass.) is used to test a compound's larvicidal activity. […] After a 24 hour exposure, the number of dead larvae are counted and recorded.
The results are presented in Table 17 as % lethality (the number of dead larvae divided by the total number of larvae).

cpA neurons = test: extracellular single-sensillum electrophysiology: activation of cpA neuronal activity; details: for Class: Table 6, single compounds, increase over baseline cpA neuronal activity; for Comp A Class / Comp B Class: Table 9; for Comp A Class: component A tested individually; for Comp B Class: component B tested individually; for Class B (activator class of the individual component): Table 15, single component alone, Mod Actv; for Class (activator class of the individual component): Actv = activator
[1] = tested on: bed bugs (Cimex lectularius); test: bed bug repellency assay; assay type: in vivo; details: for % Rep (bed bug repellency): compound or combination on filter paper harborage, ten bed bugs
Procedure: Compounds and combinations of compounds of the present invention were assayed for their ability to repel bed bugs (Cimex lectularius) using a bed bug repellency assay. This assay takes advantage of the bed bug's natural tendency to seek harborage. Two petri dishes were obtained and the inner areas of each were sanded down (leaving the perimeter smooth.) Talc was applied on the perimeter and on the inside walls of the petri dishes with a small paint brush to prevent bed bugs from escaping. A cut off top portion of a solo bathroom cup was placed upside down in the center of one petri dish. A large plastic secondary container was gathered and a paper towel was laid down inside the bottom. The petri dish was then placed inside and ten bed bugs were placed inside the cut off portion of the solo cup. Next, two pieces of filter paper were cut down the middle to yield 4 equally sized halves. 3 pieces were placed inside a glass dish ([…]) and the remaining piece was placed in a separate dish. All 4 pieces were folded down the middle to create a “tent” or “harborage” when laid such that the folded crease faced up. 100 microliters of isopropyl alcohol was pipetted into 3 pieces of filter paper (all housed in the first glass dish.) In a separate 4 ml vial, 90 microliters of isopropyl alcohol was combined and vortexed with 10 microliters of the compound or compound combination being tested. 100 microliters of this solution [comprising a total of 100 mg of compound(s)] was pipetted onto the filter paper in the separate dish. All filter papers were then allowed to dry. Once dry, experiments were conducted first with two filter paper halves comprising only the isopropyl alcohol (control experiment) and then with the remaining filter paper halves [one with only isopropyl alcohol and one comprising the test compound(s).] Filter paper halves were placed on opposing sides of experimental petri dishes and bed bugs were allowed to move freely within the dishes for 5 minutes. Movement of bed bugs beneath each filter paper tent was recorded. […] In the Table, “Rep” refers to repellency and “Cmpd” refers to compound.

[2] = 0.25% compound, 24 hour exposure, dead larvae / total larvae
[3] = 100 ppm compound, 24 hour exposure, dead larvae / total larvae

Compound: CC1OCCC1=O (stereo not drawn) [OLI0004, 2-methyltetrahydrofuran-3-one]
- mortality at 200 µg/mL (female mosquitoes): 0%
- mortality at 2000 µg/mL (female mosquitoes): 0%
- pest or weed control at 0.25 % (larvae; [2]): 0%
- pest or weed control at 100 ppm (larvae; [3]): 0%
- Class (cpA neurons): Strong Activator (strong activators yield an increase in activity that is >60 spk/sec over baseline neuronal activity)
- % Rep (bed bug repellency) [1]: 37%

Compound: CCc1ccc(O)cc1 [OLI0005, 4-ethylphenol]
- mortality at 200 µg/mL (female mosquitoes): 0%
- mortality at 2000 µg/mL (female mosquitoes): 100%
- pest or weed control at 100 ppm (larvae; 24 h): 100%
- pest or weed control at 0.25 % (larvae; 24 h): 100%
- Class (cpA neurons): Strong Activator (strong activators yield an increase in activity that is >60 spk/sec over baseline neuronal activity)
- % Rep (bed bug repellency) [1]: 100%

Compound: Cc1ccc(C=O)o1 [OLI0006, 5-methyl furfural]
- mortality at 200 µg/mL (female mosquitoes): 0%
- mortality at 2000 µg/mL (female mosquitoes): 0%
- pest or weed control at 0.25 % (larvae; [2]): 100%
- pest or weed control at 100 ppm (larvae; [3]): 0%
- Class (cpA neurons): Strong Activator (strong activators yield an increase in activity that is >60 spk/sec over baseline neuronal activity)
- % Rep (bed bug repellency) [1]: 47%

Compound: CCCCOC=O [OLI0007, butyl formate]
- mortality at 200 µg/mL (female mosquitoes): 0%
- mortality at 2000 µg/mL (female mosquitoes): 0%
- pest or weed control at 100 ppm (larvae; 24 h): 0%
- pest or weed control at 0.25 % (larvae; 24 h): 0%
- Class (cpA neurons): Strong Activator (strong activators yield an increase in activity that is >60 spk/sec over baseline neuronal activity)
- % Rep (bed bug repellency) [1]: 6%

Compound: CCOC(=O)c1ccco1 [OLI0009, ethyl 2-furoate]
- mortality at 200 µg/mL (female mosquitoes): 0%
- mortality at 2000 µg/mL (female mosquitoes): 0%
- pest or weed control at 0.25 % (larvae; [2]): 100%
- pest or weed control at 100 ppm (larvae; [3]): 0%
- Class (cpA neurons): Strong Activator (strong activators yield an increase in activity that is >60 spk/sec over baseline neuronal activity)
- % Rep (bed bug repellency) [1]: 41%

Compound: CCOC(=O)C(C)O (stereo not drawn) [OLI0010, ethyllactate]
- mortality at 200 µg/mL (female mosquitoes): 0%
- mortality at 2000 µg/mL (female mosquitoes): 0%
- pest or weed control at 0.25 % (larvae; [2]): 0%
- pest or weed control at 100 ppm (larvae; [3]): 0%
- Class (cpA neurons): Strong Activator (strong activators yield an increase in activity that is >60 spk/sec over baseline neuronal activity)
- % Rep (bed bug repellency) [1]: 37%

Compound: COc1ccccc1O [OLI0012, guaiacol]
- mortality at 200 µg/mL (female mosquitoes): 0%
- mortality at 2000 µg/mL (female mosquitoes): 0%
- pest or weed control at 0.25 % (larvae; [2]): 100%
- pest or weed control at 100 ppm (larvae; [3]): 0%
- Class (cpA neurons): Strong Activator (strong activators yield an increase in activity that is >60 spk/sec over baseline neuronal activity)
- % Rep (bed bug repellency) [1]: 100%

Compound: Cc1cnc(C)c(C)n1 [OLI0014, 2,3,5-trimethylpyrazine]
- mortality at 200 µg/mL (female mosquitoes): 0%
- mortality at 2000 µg/mL (female mosquitoes): 0%
- pest or weed control at 0.25 % (larvae; [2]): 21%
- pest or weed control at 100 ppm (larvae; [3]): 0%
- Class (cpA neurons): Moderate Activator (Moderate activators yield an increase in neuronal activity that is between 40 and 60 spk/sec over baseline neuronal activity)
- Comp A Class (cpA neurons): Mod
- Comp B Class (cpA neurons): Mod
- Class B (activator class of the individual component) (cpA neurons): Mod
- % Rep (bed bug repellency) [1]: 59%

Compound: Cc1nccnc1C [OLI0015, 2,3-dimethylpyrazine]
- mortality at 200 µg/mL (female mosquitoes): 0%
- mortality at 2000 µg/mL (female mosquitoes): 0%
- pest or weed control at 0.25 % (larvae; [2]): 0%
- pest or weed control at 100 ppm (larvae; [3]): 0%
- Class (cpA neurons): Moderate Activator (Moderate activators yield an increase in neuronal activity that is between 40 and 60 spk/sec over baseline neuronal activity)
- Comp A Class (cpA neurons): Mod
- Comp B Class (cpA neurons): Mod
- Class (activator class of the individual component) (cpA neurons; Table 13, single component alone): Mod
- Class B (activator class of the individual component) (cpA neurons): Mod
- Class (activator class of the individual component) (cpA neurons; Table 16, single component alone): Mod
- activator class of single compound (cpA neurons; single compound): moderate activator (spike rate of 40-60 spk/sec over the baseline activity of the neuron)
- % Rep (bed bug repellency) [1]: 77%

Compound: O=CCc1ccccc1 [OLI0028, phenylacetaldehyde]
- mortality at 200 µg/mL (female mosquitoes): 0%
- mortality at 2000 µg/mL (female mosquitoes): 0%
- Class (cpA neurons): Moderate Activator (Moderate activators yield an increase in neuronal activity that is between 40 and 60 spk/sec over baseline neuronal activity)
- Comp B Class (cpA neurons): Mod
- % Rep (bed bug repellency) [1]: 50%

Compound: C=CCOC(=O)C=Cc1ccccc1 [OLI0104, allyl cinnamate]
- mortality at 200 µg/mL (female mosquitoes): 0%
- mortality at 2000 µg/mL (female mosquitoes): 45%
- pest or weed control at 0.25 % (larvae; [2]): 100%
- pest or weed control at 100 ppm (larvae; [3]): 15%
- % Rep (bed bug repellency) [1]: 54%

Compound: CCC(=O)OC/C=C/c1ccccc1 [OLI0105, trans-cinnamyl propionate]
- mortality at 200 µg/mL (female mosquitoes): 0%
- mortality at 2000 µg/mL (female mosquitoes): 85%
- pest or weed control at 0.25 % (larvae; [2]): 100%
- pest or weed control at 100 ppm (larvae; [3]): 0%
- % Rep (bed bug repellency) [1]: 35%

Compound: O=COCC=Cc1ccccc1 [OLI0107, cinnamyl formate]
- mortality at 200 µg/mL (female mosquitoes): 0%
- mortality at 2000 µg/mL (female mosquitoes): 100%
- pest or weed control at 0.25 % (larvae; [2]): 100%
- pest or weed control at 100 ppm (larvae; [3]): 0%
- % Rep (bed bug repellency) [1]: 100%

Compound: CCC(=O)OCC=Cc1ccccc1 [OLI0109, cinnamyl propionate]
- mortality at 200 µg/mL (female mosquitoes): 0%
- mortality at 2000 µg/mL (female mosquitoes): 100%
- pest or weed control at 0.25 % (larvae; [2]): 100%
- pest or weed control at 100 ppm (larvae; [3]): 0%
- % Rep (bed bug repellency) [1]: 41%

Compound: CCOC(=O)C=Cc1ccccc1 [OLI0110, ethyl cinnamate]
- mortality at 200 µg/mL (female mosquitoes): 0%
- mortality at 2000 µg/mL (female mosquitoes): 100%
- pest or weed control at 0.25 % (larvae; [2]): 100%
- pest or weed control at 100 ppm (larvae; [3]): 0%
- % Rep (bed bug repellency) [1]: 59%

Compound: COC(=O)C=Cc1ccccc1 [OLI0113, methyl cinnamate]
- mortality at 200 µg/mL (female mosquitoes): 0%
- mortality at 2000 µg/mL (female mosquitoes): 100%
- pest or weed control at 0.25 % (larvae; [2]): 100%
- pest or weed control at 100 ppm (larvae; [3]): 0%
- % Rep (bed bug repellency) [1]: 68%

Compound: COC(=O)/C=C/c1ccccc1 [OLI0114, methyl trans-cinnamate]
- mortality at 200 µg/mL (female mosquitoes): 0%
- mortality at 2000 µg/mL (female mosquitoes): 100%
- pest or weed control at 0.25 % (larvae; [2]): 100%
- pest or weed control at 100 ppm (larvae; [3]): 0%
- % Rep (bed bug repellency) [1]: 70%

Compound: CC1CCC(C(C)C)C(O)C1 (stereo not drawn) [OLI0115, Menthol]
- mortality at 200 µg/mL (female mosquitoes): 0%
- mortality at 2000 µg/mL (female mosquitoes): 0%
- pest or weed control at 100 ppm (larvae; 24 h): 0%
- pest or weed control at 0.25 % (larvae; 24 h): 100%
- % Rep (bed bug repellency) [1]: 60%

Compound: CCCCCCOC(=O)CCC [OLI0119, hexyl butyrate]
- mortality at 200 µg/mL (female mosquitoes): 0%
- mortality at 2000 µg/mL (female mosquitoes): 0%
- pest or weed control at 0.25 % (larvae; [2]): 15%
- pest or weed control at 100 ppm (larvae; [3]): 0%
- % Rep (bed bug repellency) [1]: 59%

Compound: O=C(C=Cc1ccccc1)OCc1ccccc1 [OLI0120, benzyl cinnamate]
- mortality at 200 µg/mL (female mosquitoes): 0%
- mortality at 2000 µg/mL (female mosquitoes): 0%
- pest or weed control at 0.25 % (larvae; [2]): 0%
- pest or weed control at 100 ppm (larvae; [3]): 0%
- % Rep (bed bug repellency) [1]: 21%

Compound: O=CCc1ccccc1 [OLI0121]
- % Rep (bed bug repellency) [1]: 100%

Compound: CC(C)=CCC/C(C)=C/CO [geraniol]
- ability to repel bed bugs ([1]; 100 microliters solution on filter paper tent, 5 minutes): surprisingly strong ability to repel bed bugs
